According to ChEMBL document CHEMBL1142227, “Structural basis for the high all-trans-retinaldehyde reductase activity of the tumor marker AKR1B10” (Proc Natl Acad Sci U S A, 2007):

What was measured:
[1] = molecular target: Aldo-keto reductase family 1 member B1 (Homo sapiens, UniProt P15121); assay: Inhibition of glyceraldehyde reduction activity of human AKR1B1
[2] = molecular target: Aldo-keto reductase family 1 member B10 (Homo sapiens, UniProt O60218); assay: Inhibition of retinaldehyde reductase activity of human AKR1B10
[3] = molecular target: Aldo-keto reductase family 1 member B1 (Rattus norvegicus, UniProt P07943); assay: Inhibition of rat AKR1B4

Aldo-keto reductase family 1 member B10, sequence (O60218 whole entry): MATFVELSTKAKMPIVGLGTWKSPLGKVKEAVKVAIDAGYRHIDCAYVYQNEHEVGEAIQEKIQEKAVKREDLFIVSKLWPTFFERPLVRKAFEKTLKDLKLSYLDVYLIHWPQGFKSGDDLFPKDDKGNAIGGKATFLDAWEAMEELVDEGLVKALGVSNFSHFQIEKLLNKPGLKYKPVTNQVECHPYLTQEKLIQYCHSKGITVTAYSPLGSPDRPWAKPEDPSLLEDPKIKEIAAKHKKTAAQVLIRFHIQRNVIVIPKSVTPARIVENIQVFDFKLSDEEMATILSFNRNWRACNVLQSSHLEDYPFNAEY

| Compound | IC50 [1] [nM] | IC50 [2] [nM] | IC50 [3] [nM] |
| --- | --- | --- | --- |
| O=CC(O)CO (racemic) | 10 |  |  |
| COc1ccc2c(C(=S)N(C)CC(=O)O)cccc2c1C(F)(F)F [TOLRESTAT] |  | 11.6 | 1000 |
